Test results: patent publication US20250296910A1, “BENZAMIDE ENAMINONE DERIVATIVES AND METHODS OF USE THEREOF” (University of Maryland, Eastern Shore, priority 2022, published 2025)

How the values were obtained:
[1] = system: maximal electroshock (MES) model; test: maximal electroshock (MES) test (ETSP anticonvulsant screening); type: in vivo, Carworth Farms no. 1 (CF1) mice; conditions: ip, mice; for animals protected in MES model: 300 mg/kg
Experimental: (§1) Initial evaluation for anticonvulsant activity was done by the Epilepsy Therapy Screening Program Branch, National Institute of Neurological Disorders and Stroke. Phase I evaluation included three tests: maximal electroshock (MES), 6 Hz, and rotarod test for neurological toxicity (Tox). The studies were done in normal adult male Carworth Farms no. 1 (CF1) mice using four or more mice pre-test. Intraperitoneal (ip) administration of the test compounds was carried out as a suspension in 0.5% methylcellulose. The compounds were tested at doses ranging from 30 mg/kg to 300 mg/kg. The animals were pretreated with the test compound at time intervals of 0.5 h and 2 h. The rotarod neurologic toxicity test was completed at each dose and time point. The MES test is a high frequency (60 Hz), short duration ([…]) stimulus delivered through corneal electrodes in normal rodents while the 6 Hz 44 mA psychomotor test is a long duration (3 s) and low frequency (6 Hz). Compounds active in the MES Identification Phase tests are screened for their ability to block seizures induced in the 6 Hz psychomotor focal seizures animal model of epilepsy. The compounds effective in the 6-Hz model during the Identification phase become candidates for advanced screening in the Differentiation Phase.

6 Hz 44 mA animal model = test: 6 Hz 44 mA psychomotor seizure test (ETSP anticonvulsant screening); type: in vivo, Carworth Farms no. 1 (CF1) mice; conditions: 300 mg/kg, ip, mice
Experimental: as §1

O=C1C=C(NC(=O)c2ccc(C(F)(F)F)cc2)CC(C(F)(F)F)C1 (stereo not shown) [Compound 7, N-(3-oxo-5-(trifluoromethyl)cyclohex-1-en-1-yl)-4 (trifluoro-methyl)-benzamide]
25%: protection in MES model ([1]; 100 mg/kg, after 2 h) | animals protected in MES model ([1]; 0.5 h) | animals protected in MES model ([1]; 2 h) | protection in 6 Hz 44 mA model (6 Hz 44 mA animal model)
